Experimental data published in patent publication EP0427518B1, “NMDA-Blocking compounds, pharmaceutical compositions, their preparation and use” (priority 1989, dated 1991).

How the values were obtained:
[1] = cited from earlier work
NMDA receptor [2] = assay: Equilibrium binding of [³H]TCP to well-washed rat brain cortical membranes
Sabra mice [3] = assay: Locomotor activity (body displacement over 7-cm squares); assay type: in vivo; details: HU-211 2.5 mg/kg s.c., mean ±SEM
From the text: (§1) As will be shown hereafter, the pharmacological profile of HU-211, and other compounds constituting the active ingredients of the present compositions, includes the induction of stereotypy, locomotor hyper-activity and tachycardia in mice (Table 1). […] This possibility was explored by examining the activity of the compounds in protecting against the tremorogenic, convulsive and lethal effects of NMDA and NMDA agonists in mice. Such effects are counteracted by virtually all NMDA antagonists.

BALB/C mice [4] = assay: Protection against picrotoxin toxicity; assay type: in vivo; details: Picrotoxin 4 mg/kg s.c.; vehicle Emulsion; HU-211 10 mg/kg; 120 min post HU-211
Description: (§2) BALB/C mice (20 g) were subcutaneously injected with picrotoxin, strychnine and NMDA in doses of about LD₉₀ and subsequent clinical observations for the occurrence of convulsions and death were carried out within 20 min. The number of mice used and the mortality were assessed at the highest doses administered.

BALB/C mice [5] = assay: Protection against NMDA toxicity; assay type: in vivo; details: for % alive / No.alive total / Onset time of clinical signs: NMDA 125 mg/kg s.c., 120 min post HU-211
Description: as §2

Sabra mice [6] = assay: Inhibition of tremorogenic, convulsive and lethal effects of NMDA in Sabra mice; assay type: in vivo
Description: (§3) Sabra mice (an Israeli heterogenous strain) were pretreated with either vehicle alone (control) or HU-211 (1.25 or 2.50 mg/kg; s.c.), followed by NMDA (200 mg/kg; s.c.). […] Similar experiments were performed using C-57 Black mice, in which the dose of NMDA was decreased (100 mg/kg; s.c.). Counteraction by HU-211 of the NMDA-induced effects was more pronounced in the latter strain (which is more sensitive than Sabra mice to the effects of NMDA). In the control series of both strains, which received NMDA without HU-211, all animals died in less than 10 min. following seizure onset.

Sabra mice [7] = assay: Induction of tachycardia (heart rate); assay type: in vivo; details: HU-211 2.5 mg/kg s.c., mean ±SEM
From the text: as §1

NMDA receptor [8] = assay: Kinetics of basal and glutamate/glycine-induced [³H]TCP binding to rat brain cortical membranes
Description: Kinetic experiments were then performed in order to determine whether HU-211 exerts its behavioral effects by acting directly at the glutamate- or the glycine-binding sites of the NMDA receptor.
Like the competitive NMDA antagonist aminophosphovalerate (AP-5), HU-211 reduces the glutamate/glycine potentiation of [³H]TCP binding.
HU-211 reduces the rate of binding of [³H]TCP to the NMDA-receptor channel and the rate of dissociation of [³H]TCP-receptor complexes. • A) Time course of basal (without added agonist) and induced with 1 »M L-glutamate and 1 »M glycine) [³H]TCP binding to the NMDA receptor of rat brain cortical membranes. Data represent the basal binding determined in the absence (●) and in the presence (▲) of 10 »M HU-211, and the induced binding determined in the absence (o) and in the presence (△) of 10 »M HU-211. Binding of [³H]TCP to well-washed control membranes was determined under the following conditions: membranes (80 »g protein) were incubated at 25°C in 200 »l HEPES buffer, pH 7.4, containing 5 nM [³H]TCP (total binding) or 5 nM [³H]TCP and 100 »M PCP (phencyclidine) (nonspecific binding), and the reactions were terminated at the indicated times by rapid filtration over polyethyleneimine-treated GF/C filters. The filters were counted in scintillation liquid (Hydroluma, Lumac Inc., Netherlands). HU-211 was prepared as described elsewhere [Mechoulam, R., et al., Tetrahedron:Asymmetry, 1:315-319 (1990)]. Means values (triplicates) of the specific binding of [³H]TCP (total minus non-specific binding) are plotted as a function of the incubation time. The data shown are from one of three experiments that gave similar results. • (B-C) First-order plots of the basal (B) and the induced (C) dissociation of [³H]TCP-receptor complexes. Data represent the basal (without added agonist) dissociation rates determined in the absence (●) and in the presence (▲) of 10 »M HU-211; the induced (with 1 »M L-glutamate and 1 »M glycine) dissociation rates were determined in the absence (o) and in the presence (△) of 10 »M HU-211. Samples were preincubated as described for Figure 2A, at 25°C with 18 nM [³H]TCP for 2 h. Basal dissociation reactions were initiated by the addition of 100 »M unlabeled PCP with or without 10 »M HU-211. For the induced dissociation reactions 1 »M glutamate and 1 »M glycine were also added. Reactions were terminated either immediately (zero time) or at the indicated times. Beq, amount of [³H]TCP bound at zero time. Bt, amount of [³H]TCP boud at time t. […]
Data represent the concentration-dependent decrease of [³H]TCP binding by HU-211 (o) and by its isomer HU-210 (△). Binding of [³H]TCP (5 nM) was determined as described for Figure 2A, either in the absence (basal) or in the presence (induced) of 1 »M glutamate (A) or of 1 »M glycine (B).
Reactions were terminated after 10 min. Data are expressed as induced over basal binding as a function of isomer concentrations. […]
Non-competitive inhibition of glutamate- or glycine-induced [³H]TCP binding by HU-211. Induced [³H]TCP binding, corresponding to the ratio of binding in the presence of glutamate or glycine to binding in their absence, was determined with 5 nM [³H]TCP at 25°C for 10 min. Binding of (³H)TCP to well-washed rat cortical membranes was determined in triplicate, as described previously [Kloog, Y., et al., Biochemistry, 27: 843-848 (1988)], in the absence (basal) and presence of various concentrations of L-glutamate (a) or glycine (b) with and without HU-211, as indicated. […]

C-57 Black mice = assay: Inhibition of tremorogenic, convulsive and lethal effects of NMDA in C-57 Black mice; assay type: in vivo; details: for blockade of NMDA-induced tremor, seizure and lethality: at about 2.5 mg/kg body weight, summary statement, mouse strain not given; for mice in which the tremorogenic, convulsive and lethal effects were prevented: dose 5 mk/kg, NMDA 100 mg/kg
Description: as §3
The experiments described in Table 2 were repeated with C-57 Black mice, HU-211 replaced by the compound of formula (II) (compound Vb, U.S. Patent No. 4,179,517) and the compound of formula (IIa)(compound XIb, ibid.). NMDA (100 mg/kg) was administered to the mice.
In addition, the experiments were repeated with the novel compound HU-247.

BALB/C mice [9] = assay: Protection against strychnine toxicity; assay type: in vivo; details: Strychnine 1 mg/kg s.c.; vehicle Emulphor; HU-211 10 mg/kg; 75 min post HU-211
Description: as §2

Sabra mice [10] = assay: Induction of stereotypy (stereotypy gradient of Feigenbaum et al.); assay type: in vivo; details: for Stereotypy Gradient: HU-211 2.5 mg/kg s.c., mean ±SEM; for induction of stereotypy, locomotor hyperactivity and tachycardia: at about 25 mg/kg body weight, summary statement covering stereotypy, locomotor and heart rate tests, mice
From the text: as §1

[11] = vehicle Emulphor, HU-211 5 mg/kg
[12] = vehicle Emulsion, HU-211 5 mg/kg
[13] = vehicle Emulsion, HU-211 10 mg/kg
[14] = Sabra mice, HU-211 2.5 mg/kg s.c. 75 min prior to NMDA 200 mg/kg s.c.
[15] = C-57 Black mice, HU-211 1.25 mg/kg s.c. 75 min prior to NMDA 100 mg/kg s.c.
[16] = C-57 Black mice, HU-211 2.50 mg/kg s.c. 75 min prior to NMDA 100 mg/kg s.c.

CCCCCCC(C)(C)c1cc(O)c2c(c1)OC(C)(C)[C@@H]1CC=C(CO)C[C@@H]21 [HU-210, 7-hydroxy-Δ⁶-tetrahydrocannabionol 1,1-dimethylheptyl homolog, reference compound]
cannabimimetic activity relative to Δ-1-tetrahydrocannabionol ([1]; more active than Δ-1-tetrahydrocannabionol): ~100 times

CCCCCCC(C)(C)c1cc(O)c2c(c1)OC(C)(C)[C@H]1CC=C(CO)C[C@H]21 [HU-211, (+)-(3S,4S)-1,1-dimethylheptyl homolog of 7-hydroxy-Δ⁶-tetrahydrocannabinol]
equilibrium binding of 5 nM [³H]TCP (NMDA receptor [2]; 100 »M HU-211): not inhibited | maximum binding capacity of [3H]TCP (NMDA receptor [2]; in the presence of HU-211 10 »M, 2-100 nM [³H]TCP, 1 »M glutamate and 1 »M glycine (control 3.4)): 3.5 pmol/mg protein | Locomotor Activity (Sabra mice [3]; time 0 min, score = squares crossed): 32.0±6.0 | Locomotor Activity (Sabra mice [3]; time 15 min): 45.0±2.0 | Locomotor Activity (Sabra mice [3]; time 30 min): 37.0±4.04 | Locomotor Activity (Sabra mice [3]; time 45 min): 28.0±13.0 | Locomotor Activity (Sabra mice [3]; time 60 min): 17.0±7 | % alive (BALB/C mice [4]): 50% | No.alive total (BALB/C mice [4]): 4/8 | Onset time of clinical signs (BALB/C mice [4]): 54 min | protection against NMDA toxicity, Emulsion compared with Emulphor preparation (BALB/C mice [5]; HU-211 carried in the Emulsion versus the Emulphor preparation): better protection | % alive (BALB/C mice [5]; [11]): 20% | No.alive total (BALB/C mice [5]; [11]): 2/10 | Onset time of clinical signs (BALB/C mice [5]; [11]): 19 min | % alive (BALB/C mice [5]; [12]): 60% | No.alive total (BALB/C mice [5]; [12]): 4/7 | Onset time of clinical signs (BALB/C mice [5]; [12]): 7 min | % alive (BALB/C mice [5]; [13]): 80% | No.alive total (BALB/C mice [5]; [13]): 8/10 | Onset time of clinical signs (BALB/C mice [5]; [13]): 10 min | mice that exhibited no tremors or seizures and stayed alive for more than four days following NMDA administration (Sabra mice [6]; Sabra mice pretreated with HU-211 (2.5 mg/kg s.c.), NMDA 200 mg/kg s.c.): two of the five | Time until death (Sabra mice [6]; [14]): 20.2 ± 7.0 min | Time until first seizure (Sabra mice [6]; [14]): 18.0 ± 7.0 min | Time until first tremor (Sabra mice [6]; [14]): 8.2 ± 1.3 min | Heart Rate (Sabra mice [7]; time 0 min): 169.2±2.5 per min | Heart Rate (Sabra mice [7]; time 75 min): 186.8±2.5 per min | dissociation rate of [³H]TCP from the NMDA receptor (NMDA receptor [8]; 10 »M HU-211, both in absence and presence of 1 »M glutamate and 1 »M glycine, much more strongly in their presence): decreased the dissociation rate | inhibition of the induced [³H]TCP binding compared with the (-)enantiomer HU-210 (NMDA receptor [8]; Figure 3, stereospecificity): far more potent inhibitor | efficacy of glutamate- or glycine-induced [³H]TCP binding (NMDA receptor [8]; HU-211 10 and 5 »M, apparent affinities of glutamate and glycine not altered): reduced the efficacy | rate of association of [³H]TCP binding to the NMDA receptor (NMDA receptor [8]; basal (no added agonist), 10 »M HU-211): only a small decrease | association rate of [³H]TCP binding (NMDA receptor [8]; induced: 1 »M glutamate and 1 »M glycine, 10 »M HU-211): marked decrease | mice that exhibited no tremors or seizures and stayed alive for more than four days following NMDA administration (C-57 Black mice; C-57 Black mice pretreated with HU-211 (2.50 mg/kg s.c.), NMDA 100 mg/kg s.c.): six of the seven | Time until death (C-57 Black mice; [15]): 18.6 ± 4.2 min | Time until first seizure (C-57 Black mice; [15]): 13.2 ± 2.6 min | Time until first tremor (C-57 Black mice; [15]): 12.0 ± 2.6 min | Time until death (C-57 Black mice; [16]): >5800 min | Time until first seizure (C-57 Black mice; [16]): 5800 min | Time until first tremor (C-57 Black mice; [16]): >5800 min | persistence of the anti-NMDA effects (C-57 Black mice; C-57 Black mice, repeated NMDA 100 mg/kg one day later in the six surviving mice, preliminary results): more than 24 h | blockade of NMDA-induced tremor, seizure and lethality (C-57 Black mice): potent blockers | cannabimimetic activity ([1]; even at doses several thousand times higher than ED₅₀ of HU-210): inactive | % alive (BALB/C mice [9]): 80% | No.alive total (BALB/C mice [9]): 8/10 | Stereotypy Gradient (Sabra mice [10]; time 0 min): 0.4±0.1 | Stereotypy Gradient (Sabra mice [10]; time 15 min): 1.3±0.2 | Stereotypy Gradient (Sabra mice [10]; time 30 min): 2.2±0.1 | Stereotypy Gradient (Sabra mice [10]; time 45 min): 0.7±0.2 | Stereotypy Gradient (Sabra mice [10]; time 60 min): 0.6±0.3 | induction of stereotypy, locomotor hyperactivity and tachycardia (Sabra mice [10]): induce stereotypy, locomotor hyperactivity and tachycardia

CCCCCCC(C)(C)c1cc(OC(C)=O)c2c(c1)OC(C)(C)[C@H]1CC=C(CO)C[C@H]21 [HU-247]
mice in which the tremorogenic, convulsive and lethal effects of NMDA were fully prevented (C-57 Black mice; C-57 Black mice, dose 2.5 mg/kg, same conditions as Table 2): 6 out of 7

CCCCCCC(C)(C)c1cc(O)c2c(c1)OC(C)(C)[C@H]1CC=C(C)C[C@H]21 [II]
mice in which the tremorogenic, convulsive and lethal effects were prevented (C-57 Black mice; C-57 Black mice): 4 out of 6 | blockade of NMDA-induced tremor, seizure and lethality (C-57 Black mice): potent blockers | induction of stereotypy, locomotor hyperactivity and tachycardia (Sabra mice [10]): induce stereotypy, locomotor hyperactivity and tachycardia

CCCCCCC(C)(C)c1cc(O)c2c(c1)OC(C)(C)[C@H]1CCC(C)=C[C@H]21 [IIa]
mice in which the tremorogenic, convulsive and lethal effects were prevented (C-57 Black mice; C-57 Black mice): 4 out of 6 | blockade of NMDA-induced tremor, seizure and lethality (C-57 Black mice): potent blockers | induction of stereotypy, locomotor hyperactivity and tachycardia (Sabra mice [10]): induce stereotypy, locomotor hyperactivity and tachycardia
